Where “and” joins values, the source holds several entries; their conditions need not be identical. Equal entries are not always repeated. Where two headings read alike, the source gives them in different places.
Assay: Plasma pharmacokinetics of lorlatinib at steady state (LC-MS/MS, non-compartmental analysis)
Format: in vivo, human
Design: Vz_F / Cmax_D / AUMClast / AUMC_TAU: unit not given here
Conditions: for Tlag: unit assumed
Description: Lorlatinib was isolated from human plasma by a liquid-iquid extraction procedure. […] A linear-log trapezoidal method was used [NT] A best-fit method was used to estimate terminal elimination and to extrapolate any plasma concentration versus time profiles to compute [NT].

[1] = Cycle 1 Day 1, Cohort B2, 115 mg/m2 per dose
[2] = Cycle 1 Day 1, Cohort A1, 45 mg/m2 per dose, individual patients
[3] = Cycle 1 Day 1, Cohort A1, 60 mg/m2 per dose, individual patients
[4] = Cycle 1 Day 1, Cohort A1, 75 mg/m2 per dose, individual patients
[5] = Cycle 1 Day 1, Cohort A1, 95 mg/m2 per dose, individual patients
[6] = Cycle 1 Day 1, Cohort A1, 115 mg/m2 per dose, individual patients
[7] = Cycle 1 Day 1, Cohort A2, 100 mg per dose, individual patients
[8] = Cycle 1 Day 1, Cohort A2, 150 mg per dose, individual patients
[9] = Cycle 1 Day 1, Cohort A2, 150 mg per dose, individual patients, in ng/mL
[10] = Cycle 1 Day 1, Cohort A2, 150 mg per dose, individual patients, in ng·h/mL (unit assumed)
[11] = Cycle 1 Day 1, Cohort A2, 150 mg per dose, individual patients, listed as lorlatinib, in h (unit assumed)
[12] = Cycle 1 Day 1, patient N0773, Cohort B2, 115 mg/m2 per dose, Dose 75
[13] = Cycle 1 Day 15, Cohort A1, 95 mg/m2 per dose
[14] = Cycle 1 Day 15, Cohort A1, 95 mg/m2 per dose, in h (unit assumed)
[15] = Cycle 1 Day 15, Cohort A1, 115 mg/m2 per dose
[16] = Cycle 1 Day 15, Cohort A2, 150 mg per dose
[17] = Cycle 1 Day 15, Cohort A2, 150 mg per dose, in h (unit assumed)
[18] = Cycle 1 Day 15, Cohort A2, 150 mg per dose, in ng·h/mL (unit assumed)
[19] = Cycle 1 Day 15, Cohort B2, 95 mg/m2 per dose
[20] = Cycle 1 Day 15, Cohort B2, 95 mg/m2 per dose, in h (unit assumed)
[21] = Cycle 1 Day 15, Cohort B2, 95 mg/m2 per dose, in ng/mL
[22] = Cycle 1 Day 15, Cohort B2, 95 mg/m2 per dose, in ng·h/mL (unit assumed)
[23] = Cycle 1 Day 15, Cohort B2, 115 mg/m2 per dose
[24] = Cycle 1 Day 15, Cohort A1, 45 mg/m2 per dose, individual patients
[25] = Cycle 1 Day 15, Cohort A1, 45 mg/m2 per dose, individual patients, in h (unit assumed)
[26] = Cycle 1 Day 15, Cohort A1, 60 mg/m2 per dose, individual patients
[27] = Cycle 1 Day 15, Cohort A1, 60 mg/m2 per dose, individual patients, in h (unit assumed)
[28] = Cycle 1 Day 15, Cohort A1, 75 mg/m2 per dose, individual patients
[29] = Cycle 1 Day 15, Cohort A1, 75 mg/m2 per dose, individual patients, in h (unit assumed)
[30] = Cycle 1 Day 15, Cohort A1, 75 mg/m2 per dose, individual patients, in ng·h/mL (unit assumed)
[31] = Cycle 1 Day 15, Cohort A1, 95 mg/m2 per dose, individual patients
[32] = Cycle 1 Day 15, Cohort A1, 95 mg/m2 per dose, individual patients, in h (unit assumed)
[33] = Cycle 1 Day 15, Cohort A1, 115 mg/m2 per dose, individual patients

C[C@H]1Oc2cc(cnc2N)-c2c(nn(C)c2C#N)CN(C)C(=O)c2ccc(F)cc21 [Lorlatinib, (10R)-7-amino-12-fluoro-2,10,16-trimethyl-15-oxo-10,15,16,17-tetrahydro-2H-8,4-(metheno)pyrazolo[4,3-h][2,5,11]-benzoxadiazacyclotetradecine-3-carbonitrile]
Tlag (Cycle 1 Day 1, Cohort A2, 150 mg per dose): 0 h
Tlag (Cycle 1 Day 1, Cohort B2, 95 mg/m2 per dose): 0 h
Tlast [1]: 24 h
Tmax (Cycle 1 Day 1, Cohort B2, 115 mg/m2 per dose, in h (unit assumed)): 1
Tmax (Cycle 1 Day 1, Cohort B2, 115 mg/m2 per dose, listed as lorlatinib, in h (unit assumed)): 2
Tlag [1]: 0 h
Tlast [2]: 24 h
Tmax (Cycle 1 Day 1, Cohort A1, 45 mg/m2 per dose, individual patients, in h (unit assumed)): 2
Tlag [2]: 0 h
Tlast [3]: 24 h
Tlag [3]: 0 h
Tlast [4]: 24 h
Tmax (Cycle 1 Day 1, Cohort A1, 75 mg/m2 per dose, individual patients, in h (unit assumed)): 2
Cmax (Cycle 1 Day 1, Cohort A1, 75 mg/m2 per dose, individual patients, in ng/mL): 779
Tlag [4]: 0 h
Tlast [5]: 24 h
Tlag [5]: 0 h
AUMClast [6]: 125336.7763
Cmax_D [6]: 11.08
Tlast [6]: 24 h
Clast (Cycle 1 Day 1, Cohort A1, 115 mg/m2 per dose, individual patients, in ng/mL): 172
Tlag [6]: 0 h
Tlast [7]: 24 h
Tmax (Cycle 1 Day 1, Cohort A2, 100 mg per dose, individual patients, in h (unit assumed)): 2
Tlag [7]: 0 h
AUMClast [8]: 49463.3786 and 88733.21472 and 92632.60987
Cmax_D [8]: 3.76 and 5.527 and 7.067
Tlast [8]: 24 h
Tmax (Cycle 1 Day 1, Cohort A2, 150 mg per dose, individual patients, in h (unit assumed)): 2
Clast [9]: 70.8 and 151 and 127
Cmax [9]: 829 and 1060
AUCall [10]: 9320 and 11097.69267
AUClast [10]: 9320 and 11097.69267
MRTlast [11]: 9.52 and 8.347
Tmax [11]: 2
Tlag [8]: 0 h
AUMClast [12]: 89144.88493
Cmax_D [12]: 22.13
Tlast [12]: 24 h
Tlag [12]: 0 h
AUC_TAU_%Extrap [13]: 0%
Tlast [13]: 24 h
Tmax [14]: 1
Tmin [14]: 0
Cavg (Cycle 1 Day 15, Cohort A1, 95 mg/m2 per dose, in ng/mL): 288.1
Tlag [13]: 0 h
AUC_TAU_%Extrap [15]: 0%
Tlast [15]: 24 h
Tmin (Cycle 1 Day 15, Cohort A1, 115 mg/m2 per dose, in h (unit assumed)): 0
Tlag [15]: 0 h
AUC_TAU_%Extrap [16]: 0%
AUMC_TAU [16]: 48864.79941 and 48509.22474 and 72138.31531 and 51031.1075 and 68396.67554 and 68306.96584 and 82226.35285
Accumulation_Index [16]: 1.404 and 1.221 and 1.584 and 1.215 and 1.756 and 1.451 and 1.861
CLss_F [16]: 30.01 and 26.36 and 19.5 and 22.81 and 21.08 and 21.41 and 18.08
Tlast [16]: 24 h
Vz_F [16]: 578.5 and 370.3 and 469.1 and 316.3 and 600.6 and 439.8 and 562.8
Tmax [17]: 1
Tmin [17]: 0
Cavg (Cycle 1 Day 15, Cohort A2, 150 mg per dose, in ng/mL): 208.3 and 237.1 and 320.6 and 274 and 296.5 and 291.9 and 345.7
AUC_TAU [18]: 5690 and 7694 and 6577 and 7116 and 7005
AUCall [18]: 5690 and 7694 and 6577 and 7116 and 7005
AUClast [18]: 5690 and 7694 and 6577 and 7116 and 7005 and 8297
Tmax (Cycle 1 Day 15, Cohort A2, 150 mg per dose, read-out: Tmax): 1 h (4×) and 2 h
Tlag [16]: 0 h
AUC_%Extrap_obs [19]: 3.629%
AUC_%Extrap_pred [19]: 3.558%
AUC_TAU_%Extrap [19]: 0%
Accumulation_Index [19]: 1.029
Tlast [19]: 24 h
Vz_F [19]: 73.35
HL_Lambda_z [20]: 4.68
Tmax [20]: 2
Tmin [20]: 0
Lambda_z (Cycle 1 Day 15, Cohort B2, 95 mg/m2 per dose, in h-1 (unit assumed)): 0.1481
Clast_pred [21]: 30.18
Cmax [21]: 721
AUC_TAU [22]: 5523
AUCall [22]: 5523
AUClast [22]: 5523
Tlag [19]: 0 h
AUC_TAU_%Extrap [23]: 0%
Tlast [23]: 24 h
Tmax (Cycle 1 Day 15, Cohort B2, 115 mg/m2 per dose, in h (unit assumed)): 1
Tmax (Cycle 1 Day 15, Cohort B2, 115 mg/m2 per dose, listed as lorlatinib, in h (unit assumed)): 2
Tlag [23]: 0 h
AUC_TAU_%Extrap [24]: 0%
Tlast [24]: 24 h
Vz_F [24]: 335.3
Tmax [25]: 2
Tmin [25]: 0
Tlag [24]: 0 h
AUC_TAU_%Extrap [26]: 0%
Tlast [26]: 24 h
Tmax [27]: 2
Tmin [27]: 0
Cmax (Cycle 1 Day 15, Cohort A1, 60 mg/m2 per dose, individual patients, in ng/mL): 343
Tlag [26]: 0 h
AUC_TAU_%Extrap [28]: 0%
Tlast [28]: 24 h
MRTINF_obs [29]: 9.338
MRTINF_pred [29]: 9.311
Tmin [29]: 0
AUCINF_obs [30]: 3021
AUCINF_pred [30]: 3018
Tlag [28]: 0 h
AUC_TAU_%Extrap [31]: 0%
Tlast [31]: 24 h
MRTINF_obs [32]: 11.95
MRTINF_pred [32]: 11.86
Tmax [32]: 2
Tmin [32]: 0
Tlag [31]: 0 h
AUC_%Extrap_obs [33]: 23.66%
AUC_%Extrap_pred [33]: 23.4%
AUC_TAU_%Extrap [33]: 0%
AUMC_TAU [33]: 68314.30452
Accumulation_Index [33]: 1.333
CLss_F [33]: 15.84
Cmax_D [33]: 10.38
Fluctuation% [33]: 351.8%
Fluctuation%_Tau [33]: 351.8%

— paper PMC10202811 (Nature Medicine, 2023)
